pEC50, pIC50: −log10 of the molar value. Where two headings read alike, the source gives them in different places.
What was measured:
Human venous whole blood = assay: Human whole blood IFN-γ assay; assay type: cell-based; conditions: human whole blood, read-out: INFg Whole Blood Normalized Agonist EC50;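 note: blood from healthy donors exposed to compound for 1 h before stimulation with anti-CD3 and anti-CD28 at 1 µg/mL each, IFN-γ quantified in supernatant by AlphaLISA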
human DGKζ = molecular target: T1, human DGKζ (Homo sapiens, UniProt Q13574); assay: DGKζ LIPGLO assay (extruded liposome substrate), in vitro DGK inhibition; assay type: biochemical; conditions: read-out: DGKz LIPGLO IC50
T1 construct: TVMV protease cleavage site (C); Hexa-His (C); made in house; host or cells: Sf9 insect cells (baculovirus, Bac-to-Bac)

human DGKα = molecular target: T2, human DGKα (Homo sapiens, UniProt P23743); assay: DGKα LIPGLO assay (extruded liposome substrate), in vitro DGK inhibition; assay type: biochemical; conditions: read-out: DGKa LIPGLO IC50
T2 construct: TVMV protease cleavage site (C); Hexa-His (C); made in house; host or cells: Sf9 insect cells (baculovirus, Bac-to-Bac)

[1] = normalized to 3 μM reference compound with anti-CD3 plus anti-CD28 as 100% activation
[2] = Homo sapiens, 24 h, normalized to 3 μM reference compound with anti-CD3 plus anti-CD28 as 100% activation
[3] = Homo sapiens, 24 h, anti-CD3 plus anti-CD28, 24 hours, 3 μM reference compound = 100% activation
[4] = anti-CD3 plus anti-CD28, 24 hours, 3 μM reference compound = 100% activation

T2 sequence (P23743 with tags, fused parts or gaps): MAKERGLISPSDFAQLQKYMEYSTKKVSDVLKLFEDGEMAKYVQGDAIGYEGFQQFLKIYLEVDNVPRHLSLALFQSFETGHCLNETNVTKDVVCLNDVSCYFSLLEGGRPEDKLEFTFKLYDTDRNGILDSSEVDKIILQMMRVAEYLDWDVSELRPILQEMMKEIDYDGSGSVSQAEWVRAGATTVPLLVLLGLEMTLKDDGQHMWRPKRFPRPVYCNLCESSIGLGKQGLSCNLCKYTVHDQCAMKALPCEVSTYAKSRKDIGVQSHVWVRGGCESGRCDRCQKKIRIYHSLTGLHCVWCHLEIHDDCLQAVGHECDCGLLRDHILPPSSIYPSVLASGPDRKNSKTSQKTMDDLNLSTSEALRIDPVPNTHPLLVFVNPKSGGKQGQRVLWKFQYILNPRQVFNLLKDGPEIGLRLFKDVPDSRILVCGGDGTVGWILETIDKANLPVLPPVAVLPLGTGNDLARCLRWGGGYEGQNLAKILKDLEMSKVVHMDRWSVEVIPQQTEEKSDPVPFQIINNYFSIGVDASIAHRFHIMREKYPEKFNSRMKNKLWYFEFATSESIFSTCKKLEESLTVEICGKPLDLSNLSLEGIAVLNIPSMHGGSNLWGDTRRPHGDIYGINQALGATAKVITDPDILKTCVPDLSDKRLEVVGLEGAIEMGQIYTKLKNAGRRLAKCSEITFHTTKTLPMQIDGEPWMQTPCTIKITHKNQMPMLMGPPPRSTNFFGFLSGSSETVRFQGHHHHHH
T1 sequence (Q13574 with tags, fused parts or gaps isoform Q13574-4): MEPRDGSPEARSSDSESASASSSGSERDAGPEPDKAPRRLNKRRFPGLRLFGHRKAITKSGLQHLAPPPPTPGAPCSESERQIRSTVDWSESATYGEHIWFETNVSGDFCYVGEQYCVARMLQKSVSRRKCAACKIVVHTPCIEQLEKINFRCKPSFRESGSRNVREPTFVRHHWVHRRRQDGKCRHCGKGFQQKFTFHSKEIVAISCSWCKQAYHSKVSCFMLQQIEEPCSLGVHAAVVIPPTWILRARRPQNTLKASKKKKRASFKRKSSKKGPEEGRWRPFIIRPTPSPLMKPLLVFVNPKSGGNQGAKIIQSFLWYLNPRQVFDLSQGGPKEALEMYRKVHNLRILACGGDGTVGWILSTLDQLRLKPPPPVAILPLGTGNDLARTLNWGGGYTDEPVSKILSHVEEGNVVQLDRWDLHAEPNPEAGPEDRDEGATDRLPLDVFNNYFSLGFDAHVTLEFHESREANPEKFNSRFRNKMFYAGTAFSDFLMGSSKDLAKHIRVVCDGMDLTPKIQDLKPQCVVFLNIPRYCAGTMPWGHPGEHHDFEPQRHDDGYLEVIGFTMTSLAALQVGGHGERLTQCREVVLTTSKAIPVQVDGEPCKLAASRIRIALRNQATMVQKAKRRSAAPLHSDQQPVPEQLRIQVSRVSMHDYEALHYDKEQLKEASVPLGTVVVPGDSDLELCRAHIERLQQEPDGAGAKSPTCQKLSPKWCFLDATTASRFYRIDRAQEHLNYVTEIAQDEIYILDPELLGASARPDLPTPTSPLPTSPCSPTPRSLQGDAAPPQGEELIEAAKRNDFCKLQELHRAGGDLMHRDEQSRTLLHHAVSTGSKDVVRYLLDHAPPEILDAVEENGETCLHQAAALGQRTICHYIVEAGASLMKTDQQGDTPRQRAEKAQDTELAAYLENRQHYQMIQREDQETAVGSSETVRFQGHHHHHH

Row | Compound | pIC50 (human DGKζ; liposome (LIPGLO) assay) | pIC50 (human DGKα; liposome (LIPGLO) assay) | pIC50 (human DGKζ; DGKζ liposome (LIPGLO) assay) | pIC50 (human DGKα; DGKα liposome (LIPGLO) assay) | pEC50 (Human venous whole blood; [1]) | pEC50 (Human venous whole blood; [2]) | pEC50 (Human venous whole blood; [3]) | pEC50 (Human venous whole blood; [4])
1 | CCC(c1ccc(OC(F)(F)F)cc1F)N1C[C@H](C)N(c2cc(=O)n(C)c3ccc(C#N)nc23)C[C@H]1CC (single isomer, unassigned) [Example 420] | 6.60 | 6.51 | – | – | 6.82 | – | – | –
2 | CC(c1cccc(C(F)F)n1)N1C[C@H](C)N(c2cc(=O)n(C)c3ccc(C#N)nc23)C[C@H]1C (stereo partly drawn) [Example 1223] | 6.96 | 7.80 | – | – | 6.28 | – | – | –
3 | COC(=O)NC[C@@H]1CN(c2cc(=O)n(C)c3ccc(C#N)nc23)[C@@H](C)CN1C(c1ccc(F)cc1)c1ccc(F)cc1 [Example 1166, methyl (((2R,5S)-1-(bis(4-fluorophenyl)methyl)-4-(6-cyano-1-methyl-2-oxo-1,2-dihydro-1,5-naphthyridin-4-yl)-5-methylpiperazin-2-yl)methyl)carbamate] | 6.43 | 5.74 | – | – | – | 6.46 | – | –
4 | COc1cc(C(C)N2C[C@H](C)N(c3cc(=O)n(C)c4ccc(C#N)nc34)C[C@H]2C)ccc1F (single isomer, unassigned) [Example 1232] | 5.85 | 4.48 | – | – | 4.70 | – | – | –
5 | COCc1cc(C(C)N2C[C@H](C)N(c3cc(=O)n(C)c4ccc(C#N)nc34)C[C@H]2C)ccc1F (single isomer, unassigned) [Example 1316] | 7.74 | 5.74 | – | – | – | 5.35 | – | –
6 | CC(c1nc(C2CC2)cs1)N1C[C@H](C)N(c2cc(=O)n(C)c3ccc(C#N)nc23)C[C@H]1C (single isomer, unassigned) [Example 646] | 5.57 | 5.80 | – | – | – | 5.17 | – | –
7 | CC(c1cccc(C(F)(F)F)n1)N1C[C@H](C)N(c2cc(=O)n(C)c3ccc(C#N)nc23)C[C@H]1C (single isomer, unassigned) [Example 637] | 6.08 | 6.77 | – | – | 5.00 | – | – | –
8 | CC[C@@H]1CN(c2cc(=O)n(C)c3ccc(C#N)nc23)[C@@H](C)CN1C(C)c1ccc(F)cc1 (single isomer, unassigned) [Example 1083] | 7.10 | 7.43 | – | – | 7.12 | – | – | –
9 | C[C@@H]1CN(c2c(C#N)c(=O)n(C)c3ccc(C#N)nc23)CCN1C(c1ccc(F)cc1)c1cncnc1 (stereo partly drawn) [Example 318, 8-((3R)-4-((4-fluorophenyl)(pyrimidin-5-yl)methyl)-3-methylpiperazin-1-yl)-5-methyl-6-oxo-5,6-dihydro-1,5-naphthyridine-2,7-dicarbonitrile] | 4.85 | 5.31 | – | – | – | 5.13 | – | –
10 | COc1cc(F)ccc1C(C)N1C[C@H](C)N(c2cc(=O)n(C)c3ccc(C#N)nc23)C[C@H]1C (single isomer, unassigned) [Example 1237] | 6.24 | 5.21 | – | – | 4.92 | – | – | –
11 | C[C@@H]1CN(c2c(C#N)c(=O)n(C)c3ccc(C#N)nc23)CCN1C(c1ccc(F)cc1)c1ccc(F)cc1F (stereo partly drawn) [Example 946] | – | – | 6.14 | 6.23 | – | – | 6.17 | –
12 | C[C@@H]1CN(C(c2ccc(F)cc2)c2ccc(Cl)cc2)[C@@H](CO)CN1c1cc(=O)n(C)c2ccc(C#N)nc12 (stereo partly drawn) [Example 1175] | 6.00 | 4.68 | – | – | – | 4.70 | – | –
13 | COc1ccc(C(c2ccc(F)cc2)N2C[C@H](C)N(c3cc(=O)n(C)c4ccc(C#N)nc34)C[C@H]2C)cc1 (stereo partly drawn) [Example 659] | 6.51 | 5.85 | – | – | 4.77 | – | – | –
14 | Cn1c(=O)c(C#N)c(N2CCN(C(c3ccc(F)cc3)c3ccc(F)cc3)C(CF)C2)c2nc(Br)ccc21 (stereo not drawn) [Example 9, 4-(4-(bis(4-fluorophenyl)methyl)-3-(fluoromethyl)piperazin-1-yl)-6-bromo-1-methyl-2-oxo-1,2-dihydro-1,5-naphthyridine-3-carbonitrile] | 5.02 | 5.68 | – | – | – | 5.80 | – | –
15 | C[C@@H]1CN(c2cc(=O)n(C)c3ccc(C#N)nc23)[C@@H](C)CN1C(c1ccc(F)cn1)c1ccc(F)cn1 [Example 407, 8-((2S,5R)-4-(bis(5-fluoropyridin-2-yl)methyl)-2,5-dimethylpiperazin-1-yl)-5-methyl-6-oxo-5,6-dihydro-1,5-naphthyridine-2-carbonitrile] | 6.00 | 7.54 | – | – | – | 4.70 | – | –
16 | C[C@@H]1CN(c2cc(=O)n(C)c3ccc(C#N)nc23)[C@@H](C)CN1C(c1ccc(F)cc1)c1csc(C(F)(F)F)n1 (single isomer, unassigned) [Example 1333] | 6.80 | 6.43 | – | – | – | 6.51 | – | –
17 | CC(=O)NC[C@@H]1CN(c2cc(=O)n(C)c3ccc(C#N)nc23)[C@@H](C)CN1C(c1ccc(F)cc1)c1ccc(F)cc1 [Example 1165, N-(((2R,5S)-1-(bis(4-fluorophenyl)methyl)-4-(6-cyano-1-methyl-2-oxo-1,2-dihydro-1,5-naphthyridin-4-yl)-5-methylpiperazin-2-yl)methyl)acetamide] | 5.96 | 5.47 | – | – | – | 6.62 | – | –
18 | C[C@@H]1CN(c2cc(=O)n(C)c3ccc(C#N)nc23)[C@@H](C)CN1C(c1ccc(OC(F)(F)F)cc1F)C1CC1 (single isomer, unassigned) [Example 480] | 5.74 | 5.80 | – | – | – | 5.31 | – | –
19 | C[C@@H]1CN(c2cc(=O)n(C)c3ccc(C#N)nc23)[C@@H](C)CN1C(c1ccc(F)cc1)c1cscn1 (stereo partly drawn) [Example 722] | – | – | 6.25 | 6.92 | – | – | – | 6.08

Second part, led by results:

Row | pIC50 (human DGKζ; liposome (LIPGLO) assay) | pIC50 (human DGKα; liposome (LIPGLO) assay) | pIC50 (human DGKζ; DGKζ liposome (LIPGLO) assay) | pIC50 (human DGKα; DGKα liposome (LIPGLO) assay) | Compound | pEC50 (Human venous whole blood; [1]) | pEC50 (Human venous whole blood; [2]) | pEC50 (Human venous whole blood; [3]) | pEC50 (Human venous whole blood; [4])
20 | 5.77 | 6.34 | – | – | CC[C@H]1CN(C(C)c2ccc(OC(F)(F)F)cc2F)[C@H](CC)CN1c1cc(=O)n(C)c2ccc(C#N)nc12 (single isomer, unassigned) [Example 1372] | 5.85 | – | – | –
21 | – | – | 5.19 | 6.89 | CC(c1ccc(C#N)cc1)N1CCN(c2c(C#N)c(=O)n(C)c3ccc(C#N)nc23)C[C@H]1C (stereo partly drawn) [Example 954] | – | – | 4.70 | –
22 | 5.43 | 6.07 | – | – | CC(C)c1ccc(CN2C[C@H](C)N(c3cc(=O)n(C)c4ccc(C#N)nc34)C[C@H]2C)cc1 [Example 602] | – | 5.96 | – | –
23 | 4.55 | 5.74 | – | – | [2H]C(CC)(c1ccc(F)cc1)N1C[C@H](C)N(c2cc(=O)n(C)c3ccc(C#N)nc23)C[C@H]1C (single isomer, unassigned) [Example 574] | 5.14 | – | – | –
24 | 7.00 | 6.52 | – | – | COC[C@@H]1CN(c2cc(=O)n(C)c3ccc(C#N)nc23)[C@@H](C)CN1C(c1ccc(F)cc1)c1ccc(C(F)(F)F)cn1 (stereo partly drawn) [Example 1402] | 6.59 | – | – | –
25 | – | – | 4.70 | 5.37 | C[C@@H]1CN(c2c(C#N)c(=O)n(C)c3ccc(C#N)nc23)CCN1C(c1ccc(Cl)cc1)c1ccc2c(c1)OC(F)(F)O2 (single isomer, unassigned) [Example 941] | – | – | 4.70 | –
26 | 5.49 | 4.66 | – | – | C[C@@H]1CN(C(c2ccc(F)cc2)c2ccc(F)cc2)[C@@H](CO)CN1c1cc(=O)n(C)c2ccc(C#N)nc12 [Example 1172, 8-((2R,5R)-4-(bis(4-fluorophenyl)methyl)-5-(hydroxymethyl)-2-methylpiperazin-1-yl)-5-methyl-6-oxo-5,6-dihydro-1,5-naphthyridine-2-carbonitrile] | – | 6.38 | – | –
27 | – | – | 5.14 | 5.46 | COC(=O)c1cccc(C(C)N2CCN(c3c(C#N)c(=O)n(C)c4ccc(C#N)nc34)C[C@H]2C)c1 (single isomer, unassigned) [Example 983] | – | – | – | 4.89
28 | – | – | 5.41 | 5.55 | C[C@@H]1CN(c2c(C#N)c(=O)n(C)c3ccc(C#N)nc23)CCN1Cc1cccc(C(F)(F)F)c1 [Example 1003] | – | – | 4.70 | –
29 | 6.62 | 6.62 | – | – | C[C@@H]1CN(c2cc(=O)n(C)c3ccc(C#N)nc23)[C@@H](C)CN1C(c1ccc(F)cc1)c1cccc(C(F)F)n1 (single isomer, unassigned) [Example 696] | 6.38 | – | – | –
30 | – | – | 5.07 | 4.92 | C[C@@H]1CN(c2c(C#N)c(=O)n(C)c3ccc(C#N)nc23)[C@@H](C)CN1C(c1ccc(F)cc1)c1cnn(C)c1 (stereo partly drawn) [Example 846] | – | – | 5.29 | –

Source: patent US10669272B2, “Substituted naphthyridinone compounds useful as T cell activators” (BRISTOL-MYERS SQUIBB COMPANY, priority 2018, dated 2020)
